From PMC4735555, “Crystal structure of the N-myristoylated lipopeptide-bound MHC class I complex” (Nature Communications, 2016)

Key:
Mamu-A*02 = test: Biolayer interferometry binding to β2m-linked Mamu-A*02; design: species or system rhesus macaque; settings: Octet RED96; biotinylated β2m-linked Mamu-A*02 (refolded with YY9), negative control; lipopeptide 10 μM, 45 min; pH 7.5, 2% DMSO; 30 °C
Source text: Single-chain MHC proteins in which β2m was linked via a Gly-Ser linker (GGGGSGGSGSGGGSS) to the ectodomain of either Mamu-B*098 or Mamu-A*02, followed by a biotinylation sequence peptide (LHHILDAQKMVWNHR), were also expressed in E. coli and were purified in a similar manner to the trimer complex of Mamu-B*098, β2m and C14nef5. The β2m-linked Mamu-B*098 protein was refolded without C14nef5, whereas the β2m-linked Mamu-A*02 protein was refolded in the presence of the YY9 peptide (YTSGPGIRY). These recombinant proteins (3 mg) were biotinylated by being incubated for 12 h at 20 °C with 2 μg of BirA enzyme (Sigma-Aldrich, St Louis, MO) in a biotinylation buffer containing 100 mM Tris-HCl pH 8.0, 5 mM MgCl2, 4.5 mM ATP and 4 mM D-biotin, and were purified by size-exclusion chromatography.
The binding of ligands to MHC class I molecules was analysed using the Octet RED96 system equipped with a streptavidin-conjugated biosensor (Pall ForteBio, Menlo Park, CA) according to the manufacturer's instructions. Biotinylated β2m-linked Mamu-B*098 and Mamu-A*02 proteins were immobilized on the sensor tip surface with a signal magnitude of ∼5.0 nm. […] After reference subtraction, binding signals were analysed using the BIAevaluation 3.1 software. […]

[1] = tested on: 2N5.1 (Mamu-B*098-transfected LLC-MK2 cells as Ag-presenting cells); test: Ag presentation by LLC-MK2 cells transfected with rhesus MHC class I (Mamu) cDNA to 2N5.1; format: cell-based, rhesus macaque; settings: C14nef5 presented by LLC-MK2 expressing Mamu-B*098; in triplicate, mean with s.e.m. (graph)
Method: (§1) Figure 1 Identification of Mamu-B*098 as a lipopeptide Ag-presenting molecule. (a) LLC-MK2 cells transfected with each of the rhesus MHC class I genes were tested for their ability to present C14nef5 to 2N5.1. […] PBMCs obtained from a donor with the potential to present C14nef5 to 2N5.1 were used as a positive control. Experiments were performed in triplicate. Mean values with s.e.m. are shown. (b) The binding of lipopeptide Ags to recombinant β2m-linked Mamu-B*098 and Mamu-A*02 proteins was monitored by biolayer interferometry. Representative data from three independent experiments are shown. Mamu-A*02, a rhesus MHC class I allele known to bind 9-mer peptides, was used as a negative control. (c) Plate-coated MHC class I molecules were tested for their ability to present lipopeptide Ags to 2N5.1. The Ag-specific T-cell response was assessed by measuring the amount of IFN-γ released into the culture medium. Mean values with s.e.m. are shown. […] The original data (coloured as indicated) are depicted with the curve fit (grey) overlaid. The steady-state affinity plot (inset) is also shown. Three independent experiments were performed and mean equilibrium-dissociation constant (KD) values ±s.d. are shown. (e) Amino acid sequences of Mamu-B*098, HLA-B*27:09, Mamu-B*17:01 and human CD1a are shown. […] Solid and open triangles indicate paired and unpaired cysteine residues, respectively. […]

[2] = tested on: 2N5.1 (LLC-MK2 cells transfected with other rhesus MHC class I genes); test: Ag presentation by other (non-B*098) Mamu class I LLC-MK2 transfectants to 2N5.1; format: cell-based, rhesus macaque; settings: LLC-MK2 transfected with each rhesus MHC class I cDNA clone, other than Mamu-B*098; IFN-γ; C14nef5
Method: as §1

2N5.1 = 2N5.1 response to C14nef5 in the presence of rhesus PBMCs and its blocking by mAbs; format: cell-based, rhesus macaque; settings: rhesus PBMCs derived from a positive donor
Method: The rhesus macaques (Macaca mulatta) used in this study were treated humanely in accordance with institutional regulations, and the experimental protocols were approved by the Committee for Experimental Use of Non-human Primates at the Institute for Virus Research and at the Primate Research Institute, Kyoto University. Rhesus macaque monocytes were isolated from PBMCs using MACS MicroBeads (Miltenyi Biotec, Bergisch Gladbach, Germany) conjugated with cross-reactive anti-human CD14 Abs. After immunizing BALB/c mice with these monocytes, spleen cells were obtained and fused with SP2/0 myeloma cells using the standard polyethylene glycol method. Culture supernatants of the hybridoma clones were tested at a dilution of 1:1 for their reactivity to rhesus macaque monocytes by flow cytometry and positive clones were subjected to T-cell assays to assess blocking activities.

C14-Gly-Gly-Ala-Ile-Ser [C14nef5, N-myristoylated 5-mer peptide (C14-Gly-Gly-Ala-Ile-Ser; C14nef5) derived from the SIV Nef protein]
physical interaction with immobilized Mamu-A*02 (biolayer interferometry) (Mamu-A*02): not for the control protein Mamu-A*02 | stimulation of 2N5.1 to produce IFN-γ by Mamu-B*098-transfected LLC-MK2 cells [1]: stimulated 2N5.1 cells to produce interferon-γ (IFN-γ) | Ag presentation capacity of other Mamu class I transfectants [2]: None of the cell transfectants exhibited the Ag presentation capacity | 2N5.1 response (IFN-γ production) in the presence of rhesus PBMCs (2N5.1): responded to C14nef5
